From patent US20080267948A1, “Croos-B Structure Binding Compounds” (priority 2005, published 2008)
Entries after “also recorded” stand apart in the source; their conditions may differ.

What was measured:
tPA = tPA (Homo sapiens, UniProt P00750); assay: Plasminogen activation assay (tPA-mediated conversion of Plg to plasmin); format: biochemical; design: purchased Boehringer-Ingelheim Actilyse; conditions: 100 μg ml^−1 protein or peptide, 400 pM tPA, substrate S-2251
Protocol: Plasmin (Plm) activity was assayed as described^4. Peptides and proteins that were tested for their stimulatory ability were used at 100 μg ml^−1, unless stated otherwise. […] Chromogenic substrate S-2251 (Chromogenix, Instrumentation Laboratory SpA, Milano, Italy) was used to measure Pls activity.
Purification of β2-glycoprotein I (β2GPI) was performed according to established methods^15,16. Recombinant human β2GPI was made using insect cells and purified as described^15. Plasma derived β2GPI as used in a factor XII ELISA, the Plg-activation assay and in the anti-phospholipid syndrome antibody ELISA (see below), was purified from fresh human plasma as described^16. […]
Solutions of fibrin peptide FP6, NH2—IDIKIR-COOH (Peptide facility, Dutch Cancer Institute, Amsterdam, the Netherlands) were prepared in various ways. […] Separate samples were prepared similarly and analyzed by electron spray ionization mass spectrometry (ESI-MS) to obtain information on the distribution of the peptide over putatively present oligomers (Dr C. Versluis, Department of Biomolecular Mass Spectrometry, Bijvoet Center for Biomolecular Research, Utrecht University, Utrecht, The Netherlands). […] Micrographs were recorded at 80 kV, at suitable magnifications on a JEM-1200EX electron microscope (JEOL, Japan).

[1] = target: T1, heat-denatured misfolded ovalbumin (DOVA) (Gallus gallus, UniProt P01012); assay: ELISA binding of tPA to immobilized misfolded ovalbumin after pre-incubation with compounds; design: species or system chicken; conditions: misfolded OVA first overlayed with compound (concentration series), then tPA
T1 construct: purchased Sigma A5503
T1 sequence (P01012 2-386 limits assumed): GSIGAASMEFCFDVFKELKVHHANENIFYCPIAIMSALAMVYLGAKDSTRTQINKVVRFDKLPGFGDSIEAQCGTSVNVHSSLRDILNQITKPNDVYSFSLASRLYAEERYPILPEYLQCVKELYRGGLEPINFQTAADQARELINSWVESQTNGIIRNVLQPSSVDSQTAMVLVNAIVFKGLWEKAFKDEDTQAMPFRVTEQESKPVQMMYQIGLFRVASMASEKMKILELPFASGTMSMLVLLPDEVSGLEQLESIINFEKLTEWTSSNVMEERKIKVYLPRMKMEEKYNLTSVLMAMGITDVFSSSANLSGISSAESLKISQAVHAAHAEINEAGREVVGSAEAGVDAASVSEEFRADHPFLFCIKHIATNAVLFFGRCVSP
Protocol: Compounds were now diluted 10× in PBS/0.1% Tween20 (500 μg/ml compound). […] With this approach a further selection of the compounds was achieved. Now, compounds that at least interact with HB-AGE are selected. With the selection, similar binding assays are performed with misfolded OVA and Aβ. Finally, concentration series of the selected compounds are used in the binding studies.

heat-denatured ovalbumin = target: T2, heat-denatured ovalbumin (Gallus gallus, UniProt P01012); assay: Thioflavin T fluorescence of ovalbumin and small compounds; design: species or system chicken; conditions: 1 mg/ml compound, 1 mg/ml OVA
T2 construct: purchased Sigma A5503
T2 sequence (P01012 1-386): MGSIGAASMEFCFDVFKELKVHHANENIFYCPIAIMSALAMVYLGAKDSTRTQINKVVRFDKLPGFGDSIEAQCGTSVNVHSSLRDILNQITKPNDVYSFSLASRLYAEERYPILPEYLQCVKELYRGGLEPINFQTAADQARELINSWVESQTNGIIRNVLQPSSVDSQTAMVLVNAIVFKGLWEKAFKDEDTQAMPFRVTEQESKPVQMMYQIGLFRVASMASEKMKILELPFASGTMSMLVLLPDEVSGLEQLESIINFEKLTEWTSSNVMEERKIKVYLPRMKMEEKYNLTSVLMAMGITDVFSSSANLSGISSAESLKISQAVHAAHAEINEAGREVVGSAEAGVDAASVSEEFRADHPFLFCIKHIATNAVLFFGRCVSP
Summary of the method: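 Heat-denatured ovalbumin at 1 mg/ml in PBS, alone, with 1% v/v DMSO or with 1 mg/ml compound (also heat-denatured after compound addition), mixed 1:9 with 25 μM ThT in 50 mM glycine pH 9.0. Fluorescence read in duplicate at 435 nm excitation, 485 nm emission.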

[2] = system: misfolded proteins (Hb-AGE, Aβ); assay: Binding of misfolded proteins from solution to immobilized small compounds (overall); conditions: compounds coated on ELISA plates, Hb-AGE or Aβ in solution
Protocol: (§1) To test the ability of the twelve selected compounds (see Table 7) to bind to misfolded proteins, the compounds were immobilized at 10/100/1000 μg/ml in the wells of 96-wells Greiner Microlon high binding plates, Nunc amino Immobilizer plates and Nunc Maxisorp plates. Compounds were coated in 100 mM NaHCO3 pH 9.6, 50 μl/well, 1 h at room temperature with agitation. As a control, wells were coated with buffer only. After blocking of the plates, wells were overlayed with solutions of 0.1/1/10 μg/ml Hb-AGE or 10/100 μg/ml Aβ, in binding buffer (PBS/0.1% Tween20). After washing, binding of Hb-AGE was assessed by overlaying wells with 1 μg/ml hybridoma antibody 4B5, which binds to glycations(^2), followed by RAMPO. Binding of Aβ was visualized using 500× diluted anti-Aβ antibodies (mouse antibody beta-amyloid Clone 6F/3D #M0872, lot 00003503, DAKOCytomation; β-amyloid (H-43) SC-9129, 200 μg/ml rabbit polyclonal IgG, Santa Cruz Biotechnology) and RAMPO/SWARPO in a 1:1 ratio. Finally, wells were overlayed with OPD/H2O2 solution, and H2SO4, before absorbance readings at 490 nm.

Aβ = target: T3, Aβ (Homo sapiens, UniProt P05067, E693Q); assay: Binding of Aβ from solution to immobilized small compounds; conditions: Greiner Microlon, coat 100 μg/ml, Aβ 100 μg/ml
T3 construct: Lyophilized human amyloid-β(1-40) with E22Q mutation ‘Dutch type’; purchased Peptide facility, Dutch Cancer Institute, Amsterdam; host or cells: synthetic peptide
Protocol: as §1, with “the compounds were immobilized at 10/100/1000 μg/ml in the wells of 96-wells” left out

tPA/plasminogen = target: T4, tPA/plasminogen (Homo sapiens, UniProt P00750); assay: tPA/plasminogen activation by OVA heated in the presence of compounds (substrate PNAPEP1751); format: biochemical; conditions: 25 μg/ml OVA, 25 μg/ml compound, […] DMSO
T4 construct: purchased Boehringer Ingelheim Actilyse
T4 sequence (P00750 36-562): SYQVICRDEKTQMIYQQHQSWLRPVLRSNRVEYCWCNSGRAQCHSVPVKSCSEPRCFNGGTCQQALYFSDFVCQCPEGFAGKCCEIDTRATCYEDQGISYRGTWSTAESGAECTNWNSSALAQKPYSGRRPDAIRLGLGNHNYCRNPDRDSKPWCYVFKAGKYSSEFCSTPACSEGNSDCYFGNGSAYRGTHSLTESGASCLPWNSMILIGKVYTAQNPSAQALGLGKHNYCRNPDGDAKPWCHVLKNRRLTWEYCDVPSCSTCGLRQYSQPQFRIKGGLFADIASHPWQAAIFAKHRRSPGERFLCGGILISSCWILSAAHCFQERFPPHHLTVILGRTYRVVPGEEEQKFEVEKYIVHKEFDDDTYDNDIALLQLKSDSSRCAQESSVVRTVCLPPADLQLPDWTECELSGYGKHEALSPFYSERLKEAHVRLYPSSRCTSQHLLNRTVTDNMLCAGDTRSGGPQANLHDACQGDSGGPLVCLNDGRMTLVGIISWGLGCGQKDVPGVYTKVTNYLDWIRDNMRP
Summary of the method: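 Ovalbumin heated alone in PBS/1% DMSO (positive control) or with compounds at 1 mg/ml, then used 40-fold diluted in a tPA/plasminogen activation assay; buffer without OVA as negative control. Chromogenic substrate conversion read at 405 nm, with compound interference at 405 nm checked; signals related to control.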

ovalbumin = target: T5, ovalbumin (Gallus gallus, UniProt P01012); assay: Transmission electron microscopy of ovalbumin heated in the presence of small compounds; design: species or system chicken; conditions: 1 mg/ml ovalbumin heated with 1 mg/ml compound
T5 construct: purchased Sigma A5503
T5 sequence (P01012 1-386): T2 sequence (P01012 1-386)
Summary of the method: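 Ovalbumin at 1 mg/ml was applied to carbon-coated Formvar copper grids, washed with PBS and water, then stained 2 min in 2% methylcellulose with 0.4% uranyl acetate, pH 4. Grids were dried and imaged by TEM at 80 kV.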

[3] = information found on the www, search completed Spring 2006; cited from earlier work

Chain of tPA (P00750 36-562): as above

Molecule: H-IDIKIR-OH [FP6, reference compound]
- stimulation of tPA-mediated conversion of Plg to plasmin (tPA): activates tPA in the chromogenic plasmin activity assay

Molecule: COc1cc2c(C=O)c3c4c(cc(OC)c(OC)c4c2cc1OC)CCN3C [compound 214, dehydroglaucine derivative]
- influence on tPA binding to immobilized misfolded OVA [1]: Stimulated tPA binding to immobilized misfolded protein
- influence on Thioflavin T fluorescence with misfolded OVA (heat-denatured ovalbumin): Inhibition of Thioflavin T fluorescence with misfolded OVA
- capture of misfolded protein from solution by immobilized compound [2]: Capture of misfolded protein from solution
- Signal (a.u.) (Aβ): 0.14 a.u.
- influence on tPA/plasminogen activation by OVA pre-heated in the presence of compound (tPA/plasminogen): Inhibition of tPA/plasminogen activation by OVA pre-heated
- appearance of ovalbumin heated in the presence of compound on TEM image (ovalbumin): Smaller but more dense aggregates than in Control
- Use or activity in vitro/in vivo [3]: inhibitory effect on lipopolysaccharide (LPS)-induced; also recorded: protection of plants from invasion by micro-organisms; also recorded: antimicrobial activity; also recorded: decrease in the blood pressure after applying intravenously; also recorded: bronchoconstrictor effect; also recorded: inhibitory action on the central nervous system
